In paper PMC3575795 (Nucleic Acids Research, 2012):

Biological target: T1, MfpB (Mycobacterium fluoroquinolone resistance protein B) (Mycolicibacterium smegmatis, UniProt A0QSX9)
T1 sequence (A0QSX9 1-193): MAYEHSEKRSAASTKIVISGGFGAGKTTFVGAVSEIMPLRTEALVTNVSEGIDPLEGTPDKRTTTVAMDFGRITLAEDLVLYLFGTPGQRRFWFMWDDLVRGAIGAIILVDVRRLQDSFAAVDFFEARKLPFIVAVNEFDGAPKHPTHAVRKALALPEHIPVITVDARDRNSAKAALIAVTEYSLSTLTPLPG
Experiment: isothermal titration calorimetry
Type: binding

| Kd | Structure (SMILES) |
| --- | --- |
| 11.8 ± 3.2 nM | Nc1nc2c(ncn2[C@@H]2O[C@H](COP(=O)(O)OP(=O)(O)OP(O)(O)=S)[C@@H](O)[C@H]2O)c(=O)[nH]1 [GTP-γ-S] |
| 10.5 ± 2.9 nM | Nc1nc2c(ncn2[C@@H]2O[C@H](COP(=O)(O)OP(=O)(O)O)[C@@H](O)[C@H]2O)c(=O)[nH]1 [GDP] |
